According to ChEMBL document CHEMBL2331515, “Design, synthesis, and pharmacological characterization of novel endomorphin-1 analogues as extremely potent μ-opioid agonists” (J Med Chem, 2013):
The source made the active and inactive calls. The calls are words filed in the database; no cut-off is given here.

Columns and labels:
[1] = tested on: Mus musculus; experiment: Antinociceptive activity in Kunming mouse assessed as tail withdrawal latency at 2 mg/kg, iv after 15 to 20 mins by hot water tail-flick test relative to control; format: functional, organism-based; parameters: dose 2 mg/kg
[2] = tested on: Mus musculus; experiment: Antinociceptive activity in Kunming mouse assessed as tail withdrawal latency at 2 mg/kg, iv by hot water tail-flick test in presence of naloxone; format: functional, organism-based; parameters: dose 2 mg/kg
[3] = molecular target: T1, Mu-type opioid receptor (Homo sapiens, UniProt P35372); experiment: Agonist activity at FLAG-tagged mu-type opioid receptor (unknown origin) expressed in HEK293 cells assessed as stimulation of ERK1/2 phosphorylation at 1 uM after 2 mins by Western blotting analysis; format: cell-based
T1 sequence (P35372 whole entry): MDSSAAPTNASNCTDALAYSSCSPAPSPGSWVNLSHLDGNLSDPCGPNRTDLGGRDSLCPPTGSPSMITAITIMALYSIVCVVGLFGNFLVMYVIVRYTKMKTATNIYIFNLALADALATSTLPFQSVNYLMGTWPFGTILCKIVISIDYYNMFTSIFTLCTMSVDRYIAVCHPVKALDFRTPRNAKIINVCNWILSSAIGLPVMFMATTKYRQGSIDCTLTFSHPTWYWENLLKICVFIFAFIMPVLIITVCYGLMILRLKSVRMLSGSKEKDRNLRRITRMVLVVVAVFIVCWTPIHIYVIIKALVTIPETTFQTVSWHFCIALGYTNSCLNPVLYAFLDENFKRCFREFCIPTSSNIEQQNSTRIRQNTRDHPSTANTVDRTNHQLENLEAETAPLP

[4] = molecular target: Mu-type opioid receptor (Cavia porcellus, UniProt P97266); experiment: Agonist activity at mu-type opioid receptor in guinea pig ileum assessed as inhibition of electrically evoked muscle contraction; format: tissue-based
Mu-type opioid receptor (Cavia porcellus, UniProt P97266), sequence (P97266 whole entry): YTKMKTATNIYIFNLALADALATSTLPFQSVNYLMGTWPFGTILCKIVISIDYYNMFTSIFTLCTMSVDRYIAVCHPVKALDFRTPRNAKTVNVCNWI

[5] = tested on: Mus musculus; experiment: Antinociceptive activity in Kunming mouse assessed as tail withdrawal latency at 0.67 to 20 nmol/kg, icv by hot water tail-flick test; format: functional, organism-based; details: TDE = time-dependent effect
[6] = molecular target: T1, Mu-type opioid receptor; experiment: Agonist activity at FLAG-tagged mu-type opioid receptor (unknown origin) expressed in HEK293 cells assessed as inhibition of forskolin-stimulated cAMP accumulation after 30 mins by liquid scintillation counting analysis relative to DAMGO; format: functional, cell-based
[7] = species: Homo sapiens; experiment: Selectivity ratio of Ki for Myc-tagged delta-type opioid receptor (unknown origin) to Ki for FLAG-tagged mu-type opioid receptor (unknown origin)
[8] = tested on: Mus musculus; experiment: Antinociceptive activity in Kunming mouse assessed as tail withdrawal latency at 2 mg/kg, iv by hot water tail-flick test in presence of naloxone methiodide; format: functional, organism-based; parameters: dose 2 mg/kg
[9] = tested on: Mus musculus; experiment: Antinociceptive activity in icv dosed Kunming mouse assessed as tail withdrawal latency by hot water tail-flick test; format: functional; details: for ED50: central
[10] = molecular target: T1, Mu-type opioid receptor; experiment: Displacement of [3H]DAMGO from FLAG-tagged mu-type opioid receptor (unknown origin) expressed in HEK293 cells after 60 mins by liquid scintillation counting analysis; format: cell-based
[11] = molecular target: Kappa-type opioid receptor (Homo sapiens, UniProt P41145); experiment: Displacement of [3H]U69,593 from kappa-type opioid receptor (unknown origin) expressed in HEK293 cells after 60 mins by liquid scintillation counting analysis; format: cell-based
Kappa-type opioid receptor, sequence (P41145 whole entry): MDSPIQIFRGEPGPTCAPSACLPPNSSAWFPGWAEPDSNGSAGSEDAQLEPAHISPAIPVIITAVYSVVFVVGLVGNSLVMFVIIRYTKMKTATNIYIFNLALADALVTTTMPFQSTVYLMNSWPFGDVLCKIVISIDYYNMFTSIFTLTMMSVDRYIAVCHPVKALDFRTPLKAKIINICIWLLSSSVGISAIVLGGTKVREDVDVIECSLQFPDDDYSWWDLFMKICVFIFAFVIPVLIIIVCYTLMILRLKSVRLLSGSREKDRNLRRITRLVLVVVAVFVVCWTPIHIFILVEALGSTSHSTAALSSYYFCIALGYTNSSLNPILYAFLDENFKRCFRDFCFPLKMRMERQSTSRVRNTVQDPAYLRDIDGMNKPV

[12] = molecular target: T1, Mu-type opioid receptor; experiment: Agonist activity at FLAG-tagged mu-type opioid receptor (unknown origin) expressed in HEK293 cells assessed as stimulation of ERK1/2 phosphorylation at 1 uM after 10 mins by Western blotting analysis; format: cell-based; details: TDE = time-dependent effect
[13] = molecular target: Mu-type opioid receptor (Mus musculus) (UniProt P42866); experiment: Agonist activity at mu-type opioid receptor in Kunming mouse vas deferens assessed as inhibition of electrically evoked muscle contraction in presence of naltrindole
Mu-type opioid receptor (Mus musculus), sequence (P42866 whole entry): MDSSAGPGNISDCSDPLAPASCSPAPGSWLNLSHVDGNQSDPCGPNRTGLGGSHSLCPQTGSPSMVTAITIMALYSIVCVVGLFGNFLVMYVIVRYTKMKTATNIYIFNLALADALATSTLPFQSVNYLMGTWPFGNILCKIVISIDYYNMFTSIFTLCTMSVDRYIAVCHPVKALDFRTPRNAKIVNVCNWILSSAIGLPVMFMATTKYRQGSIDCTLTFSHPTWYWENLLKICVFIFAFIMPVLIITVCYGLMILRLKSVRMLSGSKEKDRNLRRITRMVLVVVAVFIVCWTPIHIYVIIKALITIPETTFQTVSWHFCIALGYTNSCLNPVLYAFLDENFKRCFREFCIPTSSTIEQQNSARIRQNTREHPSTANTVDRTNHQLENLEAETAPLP

[14] = molecular target: T2, Delta-type opioid receptor (Homo sapiens, UniProt P41143); experiment: Agonist activity at Myc-tagged delta-type opioid receptor (unknown origin) expressed in HEK293 cells assessed as inhibition of forskolin-stimulated cAMP accumulation after 30 mins by liquid scintillation counting analysis relative to DAMGO; format: functional, cell-based
T2 sequence (P41143 whole entry): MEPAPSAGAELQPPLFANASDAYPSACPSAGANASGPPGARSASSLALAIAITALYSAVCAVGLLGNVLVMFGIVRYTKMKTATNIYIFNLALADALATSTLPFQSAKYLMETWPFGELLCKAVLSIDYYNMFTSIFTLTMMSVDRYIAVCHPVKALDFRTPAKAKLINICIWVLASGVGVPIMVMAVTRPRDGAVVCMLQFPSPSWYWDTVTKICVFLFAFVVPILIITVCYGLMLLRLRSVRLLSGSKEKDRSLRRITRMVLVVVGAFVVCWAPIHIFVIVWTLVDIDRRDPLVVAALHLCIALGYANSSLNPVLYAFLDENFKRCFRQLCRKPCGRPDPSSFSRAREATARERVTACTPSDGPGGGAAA

[15] = Selectivity ratio of Ki for kappa-type opioid receptor (unknown origin) to Ki for FLAG-tagged mu-type opioid receptor (unknown origin); details: Homo sapiens
[16] = molecular target: T1, Mu-type opioid receptor; experiment: Agonist activity at FLAG-tagged mu-type opioid receptor (unknown origin) expressed in HEK293 cells assessed as inhibition of forskolin-stimulated cAMP accumulation after 30 mins by liquid scintillation counting analysis; format: functional, cell-based
[17] = molecular target: T2, Delta-type opioid receptor; experiment: Displacement of [3H]DPDPE from Myc-tagged delta-type opioid receptor (unknown origin) expressed in HEK293 cells after 60 mins by liquid scintillation counting analysis; format: cell-based
[18] = molecular target: T2, Delta-type opioid receptor; experiment: Agonist activity at Myc-tagged delta-type opioid receptor (unknown origin) expressed in HEK293 cells assessed as inhibition of forskolin-stimulated cAMP accumulation after 30 mins by liquid scintillation counting analysis; format: functional, cell-based
[19] = molecular target: Mu-type opioid receptor (Mus musculus, UniProt P42866); experiment: Agonist activity at mu-type opioid receptor in Kunming mouse vas deferens assessed as inhibition of electrically evoked muscle contraction
Mu-type opioid receptor (Mus musculus, UniProt P42866), sequence (P42866 whole entry): as the sequence (P42866 whole entry) above

[20] = tested on: Mus musculus; experiment: Antinociceptive activity in icv dosed Kunming mouse assessed as tail withdrawal latency by hot water tail-flick test in presence of naloxone; format: functional, organism-based
[21] = Half life in mouse brain homogenate by RP-HPLC analysis; format: ADME, tissue-based

Compound	Activity [1]	Activity [2]	Activity [3]	IC50 [4] [nM]	Activity [5]	Emax [6] [%]	Ratio Ki [7]	Activity [8]	Activity [9]	Ki [10] [nM]	Ki [11] [nM]	inhibition [13]	Emax [14] [%]	Ratio Ki [15]	inhibition [16]	Ki [17] [nM]	Activity [18]	EC50 [18] [nM]	IC50 [19] [nM]	EC50 [16] [nM]	also measured
C=C(C(N)=O)[C@@H](NC(=O)[C@H](Cc1c[nH]c2ccccc12)NC(=O)[C@@H]1CCN(C(=O)[C@@H](N)Cc2c(C)cc(O)cc2C)C1)c1ccco1	Active	inactive	Active	0.167	tde	99.5	5320	Active	Dose-dependent effect	0.00372	205	Active	73.8	55100	Dose-dependent effect	19.8	Dose-dependent effect	89.3	0.548	–	ED50 [9]: 0.000532 µmol/kg; Activity [12]: tde; Activity [20]: inactive; half-life [21]: > 10 h
C=C(C(=O)O)[C@@H](NC(=O)[C@H](Cc1c[nH]c2ccccc12)NC(=O)[C@@H]1CCCN1C(=O)[C@@H](N)Cc1c(C)cc(O)cc1C)c1ccco1	–	–	–	0.767	–	96.5	548	–	–	0.0405	200	Active	76.3	4940	Dose-dependent effect	22.2	Dose-dependent effect	48.9	0.533	0.000516	–
CN1CC[C@]23c4c5ccc(O)c4O[C@H]2[C@@H](O)C=C[C@H]3[C@H]1C5	Active	inactive	–	–	–	–	–	Active	–	–	–	–	–	–	–	–	–	–	–	–	–
C=C(C(N)=O)[C@@H](NC(=O)[C@H](Cc1c[nH]c2ccccc12)NC(=O)[C@H]1CCN(C(=O)[C@@H](N)Cc2c(C)cc(O)cc2C)C1)c1ccccc1	Active	inactive	Active	0.539	tde	97.1	1380	Active	Dose-dependent effect	0.0137	240	Active	77.6	17500	Dose-dependent effect	18.9	Dose-dependent effect	40.4	1.53	0.000107	ED50 [9]: 0.000779 µmol/kg; Activity [12]: tde; Activity [20]: inactive; half-life [21]: > 10 h
C=C(C(N)=O)[C@@H](NC(=O)[C@H](Cc1c[nH]c2ccccc12)NC(=O)[C@H]1CCN(C(=O)[C@@H](N)Cc2ccc(O)cc2)C1)c1ccccc1	–	–	–	3.21	–	95.5	9720	–	–	0.574	–	Active	–	–	Dose-dependent effect	5580	Dose-dependent effect	–	4.89	0.057	–
